Experimental data published in US8507445B2, “Compositions and methods of use of targeting peptides for diagnosis and therapy of human cancer” (Board of Regents, The University of Texas System, priority 2002, dated 2013).
Values belong to the compound of their own block, whether it stands above or below them. Bridge positions count the residues as written; N and C are the ends. Square brackets hold non-standard residues; d marks the D form. Ends that are not written are not given here. Peptide text beside a SMILES is read from it.

Tests used:
MDA-MB-435 cells = assay: Targeted phage vector transduction and peptide inhibition in cell culture; assay type: cell-based, human; conditions: cells pre-incubated with synthetic peptide
Experimental: (§1) Targeted phage vector transduction and specific inhibition by using synthetic peptides. MDA-MB-435 breast cancer and KS1767 Karposi's sarcoma cells were cultured on 8-well chamber glass slides. The culture media was replaced by 200 μl of MEM with 2% FCS and 5×10^10 TU of RGD-4C-β-gal, HWGF-β-gal, or fd-β-gal phage vectors (at 10^5 transducing units/cell in each case). Both cell lines express high levels of the integrin and MMP receptors for those targeting peptides. Phage were incubated with cells for 3 hr at 37° C., followed by a medium change to MEM plus 10% FCS. The cells were incubated for 72 hr at 37° C. to allow for β-gal gene expression. […]
(§2) In the cell culture transduction assay, β-gal expression was analyzed by immunofluorescence. For quantification of expression in cell culture, the transduced cells were washed with PBS and permeabilized with 0.2% Triton X-100 for five minutes on ice, followed by blocking with 1% BSA in PBS. […] The degree of β-gal gene expression was determined by counting fluorescent cells in at least ten fields under an inverted microscope (Nikon, Japan). Quantification of the β-gal activity in cell culture was measured as relative light units (RLU) in a luminometer and then normalized to the amount of protein in micrograms, as determined by the Lowry method in a protein assay kit (Bio-Rad Protein Assay®; Hercules, Calif.). […]

KS1767 cells = assay: as above; assay type: cell-based, human; conditions: cells pre-incubated with synthetic peptide
Experimental: as §1, §2

[1] = tested on: patient's serum antibodies, anti-GRP78 antibody, anti-CNVSDKSC antibodies; assay: Cross-inhibition assay; assay type: binding, human; conditions: anti-GRP78 and anti-CNVSDKSC antibodies
Experimental: Microtiter 96-well plates were coated with 10 μg/ml recombinant GRP78 (Stressgen) or GST attached to […] (SEQ ID NO:39) in 100 mM NaHCO3 overnight at 4° C., washed and then blocked with blocking buffer (2% milk, 1% casein, 0.05% Tween-20 in PBS) for 2 hours at 37° C. To determine the inhibitory activities of GRP78 or GST-[…] (SEQ ID NO:39), patient serum (1:50), anti-GRP78 (1:1000), and anti-GST-[…] (1:20) were incubated with GRP78 (50-100 μg) or GST-[…] (SEQ ID NO:39) (100-300 μg). The mixtures were incubated for 1 hour at 37° C. prior to adding to the coated wells. After 1 hour of incubation at room temperature the wells were washed several times with PBST buffer (0.05% Tween-20 in PBS). Secondary antibodies conjugated to horseradish peroxidase were added at 1:5000 dilution, incubated for 30 minutes at room temperature and washed five times with PBST buffer. Finally, the substrate 3,3′,5,5′-Tetramethylbenzidine (TMB; Calbiochem) was added and incubated for 15 minutes at room temperature before stopping the reaction by addition of 0.5M H2SO4. Absorbance at 450 nm was determined in an automated ELISA reader (Bio-Tek).

[2] = tested on: bone marrow metastasis from a prostate cancer; assay: Immunohistochemical staining inhibition; set-up: species or system human; conditions: GRP78 staining of bone marrow metastasis
Experimental: Paraffin sections (4 μm) were stained with purified biotinylated antibodies and peptide antibodies by immunoperoxidase detection using the Dako antigen retrieval kit and DAB (diaminobenzidine) as a substrate. All of the sections were counter-stained with hematoxylin. Purified IgGs were coupled to biotin and resolved by SDS-PAGE. The biotinylated immunopurified antibodies were used at a dilution of 1:60. Peptide C antibodies and purified pre-immune antibodies were used at 0.01 μg/μl. For the inhibition staining, peptide C antibodies were pre-incubated for 30 minutes at room temperature with the corresponding GST-peptide C (500 μg) prior to staining. For the GRP78 immunostaining, anti-GRP78 antibody (C-20) was used at 1:350 (Santa Cruz Biotechnology, Santa Cruz, Calif.). Peptide antibodies were generated in rabbits and purified using a T-gel immunoglobulin purification kit and protein G column (Pierce).

white fat vasculature [3] = assay: Peptide and phage localization in tissues; assay type: in vivo; conditions: intravenous, ob/ob mice
Experimental: (§3) Staining of formalin-fixed, paraffin-embedded mouse tissue sections was performed (Pasqualini & Rouslahti, 1996; Pasqualini et al., 2000). For phage-peptide immunolocalization, 10^10 TU of […] (SEQ ID NO:81)-phage or a control insertless phage was injected intravenously. Phage immunohistochemistry was performed using a rabbit anti-fd phage antibody (Sigma Chemicals, St. Louis, Mo.) used at 1:1,000 dilution and a secondary horseradish peroxidase (HRP)-conjugated antibody. Apoptosis was detected using standard TUNEL immunohistochemistry and an HRP-conjugated antibody. For in vivo peptide homing validation, stocks of 5-carboxyfluorescein (FITC)-conjugated […] (SEQ ID NO:81) or CARAC (SEQ ID NO:71) were chemically synthesized, cyclized using the terminal cysteines and HPLC-purified to >90% purity by Anaspec (San Jose, Calif.). Lyophilized peptides were dissolved in DMSO to a concentration of 20 mM. Ten μl of 1 mM peptide-FITC solution in PBS was injected 5 min prior to tissue extraction. For blood vessel localization, 10 μl of 2 mg/ml of rhodamine-conjugated lectin-I (RL-1102, Vector Laboratories, Burlingame, Calif.) was co-injected. All immunohistochemistry and FITC immunofluorescence images were captured using an Olympus IX70 microscope and digital camera setup (Melville, N.Y.).

white fat vasculature [4] = assay: Peptide localization in tissues; assay type: in vivo, C57BL/6 mice
Experimental: as §3

subcutaneous white fat = assay: In vivo phage library screening for fat-homing peptides; set-up: species or system ob/ob mice; conditions: mouse
Experimental: In vivo phage-display screening of the CX7C library (C, cysteine; X, any amino acid) (Pasqualini et al., 2000; Arap et al., Nature Med. 8:121-127, 2002) for fat-homing peptides was performed (Pasqualini & Rouslahti 1996, Pasqualini et al., 2000). In each biopanning round, an adult ob/ob mouse was injected intravenously (tail vein) with 10^10 transducing units (TU) of the library. Phage (˜300 TU/g in round 1 increased to ˜10^4 TU/g in round 3) were recovered after 5 min of circulation by grinding subcutaneous white fat with a glass Dounce homogenizer, suspending the homogenate in 4° C. Dulbecco's Modified Eagle's medium (DMEM) containing proteinase inhibitors (DMEM-prin: 1 mM PMSF, 20 μg/ml aprotinin, and 1 μg/ml leupeptin) and washing with DMEM-prin. The lipid phase was discarded during the washes and only the solid-phase cellular material was used. Washed homogenates were incubated with host bacteria (log phase E. coli K91kan; OD600˜2). Bacterial cultures were plated onto Luria-Bertani agar plates containing 40 μg/ml tetracycline and 100 μg/ml kanamycin, incubated overnight at 37° C. and selected clones were bulk-amplified and used to precipitate phage for a subsequent round of biopanning. The sub-library amplified after the third round of panning was enriched for fat-specific binders using a subtraction step. […]

prohibitin = biological target: T1, prohibitin (Mus musculus, UniProt P67778); assay: Adipose receptor identification by binding and immunoprecipitation
T1 construct: from tissue; host or cells: mouse adipose tissue extract
T1 sequence (P67778 2-272): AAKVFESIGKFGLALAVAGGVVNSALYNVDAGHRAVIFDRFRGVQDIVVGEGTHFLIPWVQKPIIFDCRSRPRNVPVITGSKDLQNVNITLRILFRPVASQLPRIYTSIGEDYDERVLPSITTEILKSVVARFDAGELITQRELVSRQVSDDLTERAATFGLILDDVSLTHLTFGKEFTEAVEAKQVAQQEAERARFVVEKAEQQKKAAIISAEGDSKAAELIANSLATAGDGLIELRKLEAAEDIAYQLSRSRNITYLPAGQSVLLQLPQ
Experimental: A band of approximately 35,000 Daltons (35 kDa) was isolated from mouse adipose tissue extract that bound to […] (SEQ ID NO:81) conjugated to (KLAKLAK)2 (SEQ ID NO:1) (not shown). […] The 35 kDa band was analyzed by mass spectrometry, which identified three proteins present in the sample.
The three proteins included predominately a B cell receptor associated protein (prohibitin), apolipoprotein E, and the voltage dependent anion channel (VDAC). Further studies were performed by immunoprecipitation, using either […] (SEQ ID NO:81) or CARAC (SEQ ID NO:71) conjugated to […] (SEQ ID NO:1) and precipitating with commercially available antibodies.

[5] = Anti-obesity therapy, regular diet-fed old mice; set-up: species or system C57BL/6 mice; conditions: mouse, in vivo
adipose tissue = assay: Histopathological analysis of tissues from treated mice; conditions: mouse, in vivo
Experimental: as §3

[6] = Injection into genetically obese mice; assay type: in vivo; conditions: not normal obese mice

Compound: CDCRGDCFC (also: cyclized) [RGD-4C]
- inhibition of RGD-4C-β-gal phage transduction (MDA-MB-435 cells): greater than 99%

Compound: CTTHWGFTLC (disulfide 1-10 (inferred))
- inhibition of HWGF-β-gal phage transduction (KS1767 cells): greater than 90%

- blocking of antibody binding [1]: capable of blocking binding
Compound: GRP78: recombinant 78 kDa glucose regulated protein (Stressgen)
- inhibition of immunostaining [2]: staining was inhibited

Compound: CKGGRAKDC-FITC: 5-carboxyfluorescein (FITC)-conjugated cyclized CKGGRAKDC (disulfide 1-9 (inferred); also: FITC conjugate, site not given here)
- localization to white fat vasculature (white fat vasculature [3]): localized to and was internalized by cells of white adipose vasculature
- localization to white fat vasculature (white fat vasculature [4]; intravenous, C57BL/6 (leptin +/+) mice): specifically localized to blood vessels of subcutaneous and peritoneal white fat
- co-localization with lectin-rhodamine in control tissue (white fat vasculature [4]; pancreatic tissue): No such co-localization was observed

- receptor identified (prohibitin; adipose tissue endothelial receptor): prohibitin
- enrichment of prohibitin in precipitated fraction (prohibitin; compared to the CARAC precipitated fraction): over a ten-fold enrichment
Compound: CKGGRAKDC
- share of all clones identified in the screen (subcutaneous white fat): 4.5%

Compound: CC(C)C[C@@H](NC(=O)[C@@H](CCCCN)NC(=O)CNC(=O)CNC(=O)[C@@H]1CSSC[C@H](N)C(=O)N[C@@H](CCCCN)C(=O)NCC(=O)NCC(=O)N[C@@H](CCCNC(=N)N)C(=O)N[C@@H](C)C(=O)N[C@@H](CCCCN)C(=O)N[C@@H](CC(=O)O)C(=O)N1)C(=O)N[C@H](C)C(=O)N[C@H](CCCCN)C(=O)N[C@H](CC(C)C)C(=O)N[C@H](C)C(=O)N[C@H](CCCCN)C(=O)N[C@H](CCCCN)C(=O)N[C@H](CC(C)C)C(=O)N[C@H](C)C(=O)N[C@H](CCCCN)C(=O)N[C@H](CC(C)C)C(=O)N[C@H](C)C(=O)N[C@H](CCCCN)C(=O)O (H-CKGGRAKDCGG[dK][dL][dA][dK][dL][dA][dK][dK][dL][dA][dK][dL][dA][dK]-OH; disulfide 1-9)
- toxicity [5]: No toxicity
- abnormalities in other organs (adipose tissue): No abnormalities in other organs
- mortality [6]: occasionally observed to result in mortality
